Legend:
[1] = biological target: T1, Amine oxidase [flavin-containing] B (Homo sapiens, UniProt P27338); assay: Inhibition of recombinant human MAO-B assessed as residual activity at 20 uM using benzylamine as substrate incubated for 30 mins by spectrophotometric method relative to control; details: 0.5 h, read-out: Activity
T1 sequence (P27338 whole entry): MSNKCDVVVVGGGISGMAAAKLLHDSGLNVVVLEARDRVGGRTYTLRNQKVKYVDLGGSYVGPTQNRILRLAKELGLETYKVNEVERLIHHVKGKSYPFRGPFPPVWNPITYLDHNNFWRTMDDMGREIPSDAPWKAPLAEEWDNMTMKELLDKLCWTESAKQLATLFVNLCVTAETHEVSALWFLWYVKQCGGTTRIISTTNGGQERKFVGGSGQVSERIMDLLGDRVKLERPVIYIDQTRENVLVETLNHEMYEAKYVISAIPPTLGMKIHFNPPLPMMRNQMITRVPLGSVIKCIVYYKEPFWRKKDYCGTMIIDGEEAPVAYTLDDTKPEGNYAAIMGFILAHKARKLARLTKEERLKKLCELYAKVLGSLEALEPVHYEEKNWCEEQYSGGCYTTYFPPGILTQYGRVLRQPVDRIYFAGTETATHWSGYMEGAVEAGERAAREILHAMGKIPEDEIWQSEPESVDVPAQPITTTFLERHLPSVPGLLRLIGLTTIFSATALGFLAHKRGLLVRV

[2] = biological target: T2, Amine oxidase [flavin-containing] A (Homo sapiens, UniProt P21397); assay: Inhibition of recombinant human MAO-A using kynuramine as substrate incubated for 20 mins by spectrophotometric method
T2 sequence (P21397 whole entry): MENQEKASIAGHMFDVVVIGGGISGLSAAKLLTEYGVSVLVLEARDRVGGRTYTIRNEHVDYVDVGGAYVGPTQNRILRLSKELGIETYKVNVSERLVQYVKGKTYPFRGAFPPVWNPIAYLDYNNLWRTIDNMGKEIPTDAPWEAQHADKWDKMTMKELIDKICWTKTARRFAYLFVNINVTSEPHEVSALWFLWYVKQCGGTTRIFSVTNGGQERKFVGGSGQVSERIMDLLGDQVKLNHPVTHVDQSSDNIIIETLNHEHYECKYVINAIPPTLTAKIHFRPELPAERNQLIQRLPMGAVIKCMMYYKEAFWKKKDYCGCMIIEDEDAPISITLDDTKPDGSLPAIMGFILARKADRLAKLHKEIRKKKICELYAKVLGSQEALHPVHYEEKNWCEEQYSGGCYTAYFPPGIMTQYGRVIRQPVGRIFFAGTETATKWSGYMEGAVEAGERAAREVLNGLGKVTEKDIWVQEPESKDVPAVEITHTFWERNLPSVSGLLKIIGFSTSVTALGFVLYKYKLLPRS

[3] = biological target: T1, Amine oxidase [flavin-containing] B; assay: Inhibition of recombinant human MAO-B using benzylamine as substrate incubated for 30 mins by spectrophotometric method
[4] = biological target: T2, Amine oxidase [flavin-containing] A; assay: Inhibition of recombinant human MAO-A assessed as residual activity at 20 uM using kynuramine as substrate incubated for 20 mins by spectrophotometric method relative to control; details: read-out: Activity
Homo sapiens = species: Homo sapiens; assay: Selectivity index, ratio of IC50 for recombinant human MAO-B to IC50 for recombinant human MAO-A
[5] = biological target: T2, Amine oxidase [flavin-containing] A; assay: Reversible inhibition of recombinant human MAO-A assessed as residual activity at 1.1 uM using kynuramine as substrate preincubated for 30 mins followed by dialysis for 6 hrs by spectrophotometric method relative to control; details: read-out: Activity
[6] = biological target: T2, Amine oxidase [flavin-containing] A; assay: Inhibition of recombinant human MAO-A using kynuramine as substrate by spectrophotometric method; details: TDE = time-dependent effect
[7] = biological target: T2, Amine oxidase [flavin-containing] A; assay: Competitive inhibition of recombinant human MAO-A using kynuramine as substrate by Lineweaver-Burk plot analysis
[8] = biological target: T2, Amine oxidase [flavin-containing] A; assay: Inhibition of recombinant human MAO-A assessed as residual activity at 1.1 uM using kynuramine as substrate after 30 mins by spectrophotometric method relative to control; details: 0.5 h, read-out: Activity
[9] = biological target: T2, Amine oxidase [flavin-containing] A; assay: Inhibition of recombinant human MAO-A expressed in baculovirus infected insect cells using aminoproplyether of luciferin methyl ester as substrate after 90 mins by chemiluminescence assay

| Compound | activity at 20 µM [1] | IC50 [2] | IC50 [3] | activity at 20 µM [4] | other results |
| --- | --- | --- | --- | --- | --- |
| COc1cc2c(cc1O)[C@H]1Cc3ccc(OC)c(OC)c3CN1CC2 | 91.4% | > 20 µM | > 20 µM | 93.4% |  |
| CN1Cc2c(ccc3c2OCO3)[C@@]2(C)[C@@H](O)Cc3cc4c(cc3[C@@H]12)OCO4 | 87.6% | > 20 µM | > 20 µM | 87.9% |  |
| COc1cc2c(cc1OC)[C@@H]1[C@H](C)c3ccc(OC)c(OC)c3CN1CC2 | 54.7% | > 20 µM | 24.1 µM | 79.5% |  |
| COc1cc2c(cc1OC)[C@@H]1Cc3ccc(O)c(OC)c3CN1CC2 | 92.8% | > 20 µM | > 20 µM | 85.6% |  |
| COc1ccc(-c2cc(=O)c3c(O)cc(O)cc3o2)cc1 |  |  |  |  | Ratio IC50 (Homo sapiens): 0.89 |
| O=C1/C(=C/c2ccc(O)cc2)Oc2cc(O)ccc21 |  |  |  |  | Ratio IC50 (Homo sapiens): 9.4 |
| COc1ccc2c(c[n+](C)c3c4cc5c(cc4ccc23)OCO5)c1OC [CHELERYTHRINE] | 94.3% | 0.55 µM | > 20 µM | 28.3% | activity at 1.1 µM [5]: 75%; inhibition (INH) [6]: Tde; Ratio IC50 (Homo sapiens): > 36.4; Ki [7]: 0.22 µM; activity at 1.1 µM [8]: 28.5% |
| C#CCN(C)CCCOc1ccc(Cl)cc1Cl [CLORGILINE] |  |  |  |  | activity at 1.1 µM [5]: 18.3%; activity at 1.1 µM [8]: 17.3% |
| COc1cc(-c2[o+]c3cc(O)cc(O)c3cc2O)cc(OC)c1O [MALVIDIN CHLORIDE] |  |  |  |  | IC50 [9]: 22.1 µM |
| COc1cc2c(cc1OC)-c1c(OC)c(OC)cc3ccnc(c13)C2=O [OXOGLAUCINE] | 64.9% | > 20 µM | > 20 µM | 89.7% |  |
| Cc1cccc(N2CC(CO)OC2=O)c1 (stereo unspecified) [TOLOXATONE] |  |  |  |  | activity at 1.1 µM [5]: 75.4%; activity at 1.1 µM [8]: 30.7% |
